From patent US7605164B2, “Compositions and methods for treating heart failure” (Cytokinetics, Inc., priority 2001, dated 2009)

In the case of `O=C(Nc1cc(Oc2cccnc2)cc(-c2ccccn2)c1)c1ccc(F)cc1` [Example 2, 4-Fluoro-N-[3-pyridin-2-yl-5-(pyridin-3-yloxy)-phenyl]-benzamide], the melting point was 160 to 162 °C.
